Converted amounts (≈) assume the structure as drawn.
What follows are compounds tested on E. coli tolC mutants (assay: Broth microdilution MIC testing). Details: E. coli tolC mutants.
Format: cell-based, Escherichia coli
Wherever MIC (antibacterial activity grade) is given: key: +: poor; ++: moderate; +++: good antibacterial activity.

Compound | MIC E. coli tolC [mg/L]
CCN(CC)Cc1cc(CN2CCc3nc(-c4ccccn4)[nH]c(=O)c3C2)ccc1OC [Compound 323193] | > 128
COc1cc(CN2CCc3nc(-c4ccccn4)[nH]c(=O)c3C2)ccc1OCC(N)=O [Compound 323200] | > 128
CN(C)Cc1ccc(CN2CCc3nc(-c4ccccn4)[nH]c(=O)c3C2)cc1 [Compound 323201] | > 128
CN(C)c1ccc(CN2CCc3nc(-c4ccccn4)[nH]c(=O)c3C2)cc1 [Compound 323218] | 128 (≈ 354 µM)
COc1cc(CN2CCc3nc(-c4ccccn4)[nH]c(=O)c3C2)cc(OC)c1OC [Compound 323221] | > 128
O=c1[nH]c(-c2ccccn2)nc2c1CN(Cc1cc3c(cc1Cl)OCO3)CC2 [Compound 323227] | 64 (≈ 161 µM)
CC(C)Oc1cccc(CN2CCc3nc(-c4ccccn4)[nH]c(=O)c3C2)c1 [Compound 323229] | 16 (≈ 42.5 µM)
O=c1[nH]c(-c2ccccn2)nc2c1CN(Cc1cc(Cl)cc(Cl)c1)CC2 [Compound 323339] | 2 (≈ 5.16 µM)

The compounds below were run on H. influenzae (assay: Broth microdilution MIC testing). Details: H. influenzae.
Format: cell-based, Haemophilus influenzae

Compound | MIC H. flu [mg/L]
CCN(CC)Cc1cc(CN2CCc3nc(-c4ccccn4)[nH]c(=O)c3C2)ccc1OC [Compound 323193] | > 128
COc1cc(CN2CCc3nc(-c4ccccn4)[nH]c(=O)c3C2)ccc1OCC(N)=O [Compound 323200] | > 128
CN(C)Cc1ccc(CN2CCc3nc(-c4ccccn4)[nH]c(=O)c3C2)cc1 [Compound 323201] | > 128
CN(C)c1ccc(CN2CCc3nc(-c4ccccn4)[nH]c(=O)c3C2)cc1 [Compound 323218] | 16 (≈ 44.3 µM)
COc1cc(CN2CCc3nc(-c4ccccn4)[nH]c(=O)c3C2)cc(OC)c1OC [Compound 323221] | > 128
O=c1[nH]c(-c2ccccn2)nc2c1CN(Cc1cc3c(cc1Cl)OCO3)CC2 [Compound 323227] | 32 (≈ 80.6 µM)
CC(C)Oc1cccc(CN2CCc3nc(-c4ccccn4)[nH]c(=O)c3C2)c1 [Compound 323229] | 8 (≈ 21.3 µM)
O=c1[nH]c(-c2ccccn2)nc2c1CN(Cc1cc(Cl)cc(Cl)c1)CC2 [Compound 323339] | 8 (≈ 20.7 µM)

The compounds below were run on panel of bacteria (assay: Antibacterial activity against the panel of bacteria (MIC, overall)). Details: Table 2.
Format: cell-based

Compound | MIC (antibacterial activity grade)
CN(C)c1ccc(CN2CCc3nc(-c4ccccn4)[nH]c(=O)c3C2)cc1 [Compound 323218] | +
O=c1[nH]c(-c2ccccn2)nc2c1CN(Cc1cc3c(cc1Cl)OCO3)CC2 [Compound 323227] | +
CC(C)Oc1cccc(CN2CCc3nc(-c4ccccn4)[nH]c(=O)c3C2)c1 [Compound 323229] | ++

Same assay, conditions: Table 3

Compound | MIC (antibacterial activity grade)
O=c1[nH]c(-c2ccccn2)nc2c1CN(Cc1cc(Cl)cc(Cl)c1)CC2 [Compound 323339] | +++

Same assay, conditions: panel of bacteria

Compound | antibacterial activity
CCN(CC)Cc1cc(CN2CCc3nc(-c4ccccn4)[nH]c(=O)c3C2)ccc1OC [Compound 323193] | all antibacterial activity was lost
COc1cc(CN2CCc3nc(-c4ccccn4)[nH]c(=O)c3C2)ccc1OCC(N)=O [Compound 323200] | MIC was above maximum testing concentrations for the entire panel of bacteria
CN(C)Cc1ccc(CN2CCc3nc(-c4ccccn4)[nH]c(=O)c3C2)cc1 [Compound 323201] | all antibacterial activity was lost
COc1cc(CN2CCc3nc(-c4ccccn4)[nH]c(=O)c3C2)cc(OC)c1OC [Compound 323221] | abolished both biochemical and microbiological activities

The compounds below were run on bacterial protein synthesis (aminoacylation/translation system) (assay: aminoacylation/translation (A/T) assay). Details: not given.
Format: biochemical

Compound | biochemical activity in the A/T assay
COc1cc(CN2CCc3nc(-c4ccccn4)[nH]c(=O)c3C2)cc(OC)c1OC [Compound 323221] | abolished both biochemical and microbiological activities

Same assay, conditions: A/T assay, Table 1; read-out: IC50

Compound | IC50 [µM]
CCN(CC)Cc1cc(CN2CCc3nc(-c4ccccn4)[nH]c(=O)c3C2)ccc1OC [Compound 323193] | 4.1
COc1cc(CN2CCc3nc(-c4ccccn4)[nH]c(=O)c3C2)ccc1OCC(N)=O [Compound 323200] | 0.4
CN(C)Cc1ccc(CN2CCc3nc(-c4ccccn4)[nH]c(=O)c3C2)cc1 [Compound 323201] | 2.1
CN(C)c1ccc(CN2CCc3nc(-c4ccccn4)[nH]c(=O)c3C2)cc1 [Compound 323218] | 0.24
COc1cc(CN2CCc3nc(-c4ccccn4)[nH]c(=O)c3C2)cc(OC)c1OC [Compound 323221] | > 300
O=c1[nH]c(-c2ccccn2)nc2c1CN(Cc1cc3c(cc1Cl)OCO3)CC2 [Compound 323227] | 0.37
CC(C)Oc1cccc(CN2CCc3nc(-c4ccccn4)[nH]c(=O)c3C2)c1 [Compound 323229] | 0.53
O=c1[nH]c(-c2ccccn2)nc2c1CN(Cc1cc(Cl)cc(Cl)c1)CC2 [Compound 323339] | 19

Same assay, conditions: relative to the original two compounds

Compound | fold improvement in the IC50
COc1cc(CN2CCc3nc(-c4ccccn4)[nH]c(=O)c3C2)ccc1OCC(N)=O [Compound 323200] | three to sevenfold
CN(C)c1ccc(CN2CCc3nc(-c4ccccn4)[nH]c(=O)c3C2)cc1 [Compound 323218] | five and tenfold
O=c1[nH]c(-c2ccccn2)nc2c1CN(Cc1cc3c(cc1Cl)OCO3)CC2 [Compound 323227] | three to sevenfold

The compounds below were run on M. catarrhalis (assay: Broth microdilution MIC testing). Details: not given.
Format: cell-based, Moraxella catarrhalis

Compound | MIC M. cat [mg/L]
CCN(CC)Cc1cc(CN2CCc3nc(-c4ccccn4)[nH]c(=O)c3C2)ccc1OC [Compound 323193] | > 128
COc1cc(CN2CCc3nc(-c4ccccn4)[nH]c(=O)c3C2)ccc1OCC(N)=O [Compound 323200] | > 128
CN(C)Cc1ccc(CN2CCc3nc(-c4ccccn4)[nH]c(=O)c3C2)cc1 [Compound 323201] | > 128
CN(C)c1ccc(CN2CCc3nc(-c4ccccn4)[nH]c(=O)c3C2)cc1 [Compound 323218] | 4 (≈ 11.1 µM)
COc1cc(CN2CCc3nc(-c4ccccn4)[nH]c(=O)c3C2)cc(OC)c1OC [Compound 323221] | > 128
O=c1[nH]c(-c2ccccn2)nc2c1CN(Cc1cc3c(cc1Cl)OCO3)CC2 [Compound 323227] | 8 (≈ 20.2 µM)
CC(C)Oc1cccc(CN2CCc3nc(-c4ccccn4)[nH]c(=O)c3C2)c1 [Compound 323229] | 0.5 (≈ 1.33 µM)
O=c1[nH]c(-c2ccccn2)nc2c1CN(Cc1cc(Cl)cc(Cl)c1)CC2 [Compound 323339] | ≤0.12

The compounds below were run on E. faecalis (assay: Broth microdilution MIC testing). Details: E. faecalis.
Format: cell-based, Enterococcus faecalis

Compound | MIC E. fae [mg/L]
CCN(CC)Cc1cc(CN2CCc3nc(-c4ccccn4)[nH]c(=O)c3C2)ccc1OC [Compound 323193] | > 128
COc1cc(CN2CCc3nc(-c4ccccn4)[nH]c(=O)c3C2)ccc1OCC(N)=O [Compound 323200] | > 128
CN(C)Cc1ccc(CN2CCc3nc(-c4ccccn4)[nH]c(=O)c3C2)cc1 [Compound 323201] | > 128
CN(C)c1ccc(CN2CCc3nc(-c4ccccn4)[nH]c(=O)c3C2)cc1 [Compound 323218] | > 128
COc1cc(CN2CCc3nc(-c4ccccn4)[nH]c(=O)c3C2)cc(OC)c1OC [Compound 323221] | > 128
O=c1[nH]c(-c2ccccn2)nc2c1CN(Cc1cc3c(cc1Cl)OCO3)CC2 [Compound 323227] | > 128
CC(C)Oc1cccc(CN2CCc3nc(-c4ccccn4)[nH]c(=O)c3C2)c1 [Compound 323229] | 64 (≈ 170 µM)
O=c1[nH]c(-c2ccccn2)nc2c1CN(Cc1cc(Cl)cc(Cl)c1)CC2 [Compound 323339] | 64 (≈ 165 µM)

What follows are compounds tested on S. aureus (assay: Broth microdilution MIC testing). Details: S. aureus.
Format: cell-based, Staphylococcus aureus

Compound | MIC S. aureus [mg/L]
CCN(CC)Cc1cc(CN2CCc3nc(-c4ccccn4)[nH]c(=O)c3C2)ccc1OC [Compound 323193] | > 128
COc1cc(CN2CCc3nc(-c4ccccn4)[nH]c(=O)c3C2)ccc1OCC(N)=O [Compound 323200] | > 128
CN(C)Cc1ccc(CN2CCc3nc(-c4ccccn4)[nH]c(=O)c3C2)cc1 [Compound 323201] | > 128
CN(C)c1ccc(CN2CCc3nc(-c4ccccn4)[nH]c(=O)c3C2)cc1 [Compound 323218] | > 128
COc1cc(CN2CCc3nc(-c4ccccn4)[nH]c(=O)c3C2)cc(OC)c1OC [Compound 323221] | > 128
O=c1[nH]c(-c2ccccn2)nc2c1CN(Cc1cc3c(cc1Cl)OCO3)CC2 [Compound 323227] | > 128
CC(C)Oc1cccc(CN2CCc3nc(-c4ccccn4)[nH]c(=O)c3C2)c1 [Compound 323229] | 64 (≈ 170 µM)
O=c1[nH]c(-c2ccccn2)nc2c1CN(Cc1cc(Cl)cc(Cl)c1)CC2 [Compound 323339] | 32 (≈ 82.6 µM)

What follows are compounds tested on E. coli modified with PMBN (assay: Broth microdilution MIC testing). Details: E. coli modified with PMBN.
Format: cell-based, Escherichia coli

Compound | MIC E. coli +PMBP [mg/L]
CCN(CC)Cc1cc(CN2CCc3nc(-c4ccccn4)[nH]c(=O)c3C2)ccc1OC [Compound 323193] | > 128
COc1cc(CN2CCc3nc(-c4ccccn4)[nH]c(=O)c3C2)ccc1OCC(N)=O [Compound 323200] | > 128
CN(C)Cc1ccc(CN2CCc3nc(-c4ccccn4)[nH]c(=O)c3C2)cc1 [Compound 323201] | > 128
CN(C)c1ccc(CN2CCc3nc(-c4ccccn4)[nH]c(=O)c3C2)cc1 [Compound 323218] | 64 (≈ 177 µM)
COc1cc(CN2CCc3nc(-c4ccccn4)[nH]c(=O)c3C2)cc(OC)c1OC [Compound 323221] | > 128
O=c1[nH]c(-c2ccccn2)nc2c1CN(Cc1cc3c(cc1Cl)OCO3)CC2 [Compound 323227] | > 128
CC(C)Oc1cccc(CN2CCc3nc(-c4ccccn4)[nH]c(=O)c3C2)c1 [Compound 323229] | 16 (≈ 42.5 µM)
O=c1[nH]c(-c2ccccn2)nc2c1CN(Cc1cc(Cl)cc(Cl)c1)CC2 [Compound 323339] | 2 (≈ 5.16 µM)

These compounds were tested on S. pneumoniae (assay: Broth microdilution MIC testing). Details: S. pneumoniae.
Format: cell-based, Streptococcus pneumoniae

Compound | MIC S. pneumo [mg/L]
CCN(CC)Cc1cc(CN2CCc3nc(-c4ccccn4)[nH]c(=O)c3C2)ccc1OC [Compound 323193] | > 128
COc1cc(CN2CCc3nc(-c4ccccn4)[nH]c(=O)c3C2)ccc1OCC(N)=O [Compound 323200] | > 128
CN(C)Cc1ccc(CN2CCc3nc(-c4ccccn4)[nH]c(=O)c3C2)cc1 [Compound 323201] | > 128
CN(C)c1ccc(CN2CCc3nc(-c4ccccn4)[nH]c(=O)c3C2)cc1 [Compound 323218] | 32 (≈ 88.5 µM)
COc1cc(CN2CCc3nc(-c4ccccn4)[nH]c(=O)c3C2)cc(OC)c1OC [Compound 323221] | > 128
O=c1[nH]c(-c2ccccn2)nc2c1CN(Cc1cc3c(cc1Cl)OCO3)CC2 [Compound 323227] | 64 (≈ 161 µM)
CC(C)Oc1cccc(CN2CCc3nc(-c4ccccn4)[nH]c(=O)c3C2)c1 [Compound 323229] | 8 (≈ 21.3 µM)
O=c1[nH]c(-c2ccccn2)nc2c1CN(Cc1cc(Cl)cc(Cl)c1)CC2 [Compound 323339] | 4 (≈ 10.3 µM)

Reference: publication PMC3353862
